Experiment [1] deals with T1, Microphthalmia-associated transcription factor (Homo sapiens, UniProt O75030).
T1 sequence (O75030 whole entry): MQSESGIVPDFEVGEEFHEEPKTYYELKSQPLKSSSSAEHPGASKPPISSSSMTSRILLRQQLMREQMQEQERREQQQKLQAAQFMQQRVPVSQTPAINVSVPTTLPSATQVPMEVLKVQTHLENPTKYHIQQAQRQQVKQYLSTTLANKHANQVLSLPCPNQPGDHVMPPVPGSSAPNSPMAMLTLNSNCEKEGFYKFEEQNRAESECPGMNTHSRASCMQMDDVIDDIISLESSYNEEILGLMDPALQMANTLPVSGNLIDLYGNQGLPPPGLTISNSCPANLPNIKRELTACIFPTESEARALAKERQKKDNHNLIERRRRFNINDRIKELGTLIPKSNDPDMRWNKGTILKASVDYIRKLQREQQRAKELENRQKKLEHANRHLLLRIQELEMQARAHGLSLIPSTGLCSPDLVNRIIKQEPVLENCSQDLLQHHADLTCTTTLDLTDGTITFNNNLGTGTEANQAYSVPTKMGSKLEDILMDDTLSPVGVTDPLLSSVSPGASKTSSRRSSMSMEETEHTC
Description: TRPM1 promoter luciferase signal decrease, dose response, MITF inhibitor project, cell-based, SK-MEL-5, cherry-picked, set 3 (AID 493073).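 Further: SK-MEL-5 melanoma cells with luciferase driven by the MITF target TRPM1 promoter.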 It counts as functional.

Experiment [2] can be described thus: Shn3 3'UTR reporter inhibitors, dose response, cell-based, Clone20 osteoblasts, firefly luciferase, cherry-picked (AID 624132).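 Further: firefly luciferase luminescence from reporter carrying the Shn3 3'UTR in osteoblasts.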 It is filed as functional.
A short description of experiment [3]: HepG2 cell cytotoxicity, dose response, cytotoxicity control for Shn3 inhibitor project, CellTiter-Glo, cherry-picked (AID 624134). It is filed as functional, cell-based.
Experiment [4] can be described thus: control 3'UTR Renilla luciferase suppression, dose response, counter-screen for Shn3 inhibitor project, cell-based, Clone20-Shn3RL, cherry-picked (AID 624133). It is filed as functional. On the technique in general: Counterscreens check selectivity or assay interference.
Experiment [5] in a line: reduction of Shn3 3'UTR firefly luciferase signal, dose response, Schnurri-3 inhibitor project, cell-based, Clone20 osteoblasts, cherry-pick, set 2 (AID 720490).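 Further: actives lower the luminescence signal as inhibitors.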 It counts as functional.
For experiment [6], the system named is Streptococcus sp. 'group A'. The experiment can be described thus: growth inhibition of control SK(-) GAS strain, dose response, counter-screen for streptokinase expression inhibitor project, luminescence, kanamycin, BacTiterGlo, confirmation (AID 1900). It counts as functional, organism-based.
The target in another experiment is T2, Streptokinase A (Streptococcus pyogenes serotype M1, UniProt P10520).
T2 sequence (P10520 whole entry): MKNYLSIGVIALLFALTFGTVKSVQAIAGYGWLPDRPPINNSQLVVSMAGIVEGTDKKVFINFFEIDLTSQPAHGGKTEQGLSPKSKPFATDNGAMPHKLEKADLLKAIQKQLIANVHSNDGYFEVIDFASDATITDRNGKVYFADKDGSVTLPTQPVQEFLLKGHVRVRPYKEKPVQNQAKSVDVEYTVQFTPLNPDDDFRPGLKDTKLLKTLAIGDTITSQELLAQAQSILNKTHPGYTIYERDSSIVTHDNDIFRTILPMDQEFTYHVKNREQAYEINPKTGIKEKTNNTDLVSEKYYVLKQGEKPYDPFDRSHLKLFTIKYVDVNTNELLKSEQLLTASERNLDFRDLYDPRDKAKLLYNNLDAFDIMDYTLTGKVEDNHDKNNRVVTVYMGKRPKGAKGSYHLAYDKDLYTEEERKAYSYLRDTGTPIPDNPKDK
The experiment can be described thus: S. pyogenes streptokinase expression inhibitors, potency, dose response, plasminogen activation absorbance, OD405 (AID 1914).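 Further: secreted streptokinase activity via plasminogen activation per viability signal from cell pellet.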 It counts as functional, Streptococcus pyogenes M1 GAS.

In a further experiment the test system is Streptococcus. Description: Group A Streptococcus viability loss, dose response, counter-screen for streptokinase expression inhibitor project, luminescence, BacTiterGlo (AID 1915).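 Further: potency for reduction of bacterial viability or growth.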 It counts as functional, organism-based.
The next experiment relates to INS1. The experiment can be described thus: beta cell apoptosis inhibitors, cytokine rescue, dose response, luminescence, retest (AID 449756).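 Further: cell death triggered by IL-1 beta plus TNF-alpha plus IFN-gamma mixture; protective hits raise ATP signal compared with cytokine alone wells.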 The conditions noted are these: Rattus norvegicus. It is filed as functional, cell-based.
Experiment [7] can be described thus: HepG2 cell cytotoxicity, dose response, cytotoxicity control, ATP luminescence, cherry-pick, activator set 2 (AID 1053143). It counts as functional, cell-based.
A short description of experiment [8]: A Cell-Based Confirmatory Screen for Compounds that Inhibit VEEV, TC-83 (8). It is filed as functional.
Experiment [9] in a line: Vero 76 cell cytotoxicity, dose response, cytotoxicity control, set 3 (AID 602439). It counts as functional. The conditions noted are these: Venezuelan equine encephalitis virus.
Experiment [10] deals with Disintegrin and metalloproteinase domain-containing protein 17 (Homo sapiens, UniProt P78536). The experiment can be described thus: exosite inhibitors of ADAM17, dose response, biochemical (AID 743260).
Sequence of Disintegrin and metalloproteinase domain-containing protein 17 (P78536 whole entry, the tested form may be a part): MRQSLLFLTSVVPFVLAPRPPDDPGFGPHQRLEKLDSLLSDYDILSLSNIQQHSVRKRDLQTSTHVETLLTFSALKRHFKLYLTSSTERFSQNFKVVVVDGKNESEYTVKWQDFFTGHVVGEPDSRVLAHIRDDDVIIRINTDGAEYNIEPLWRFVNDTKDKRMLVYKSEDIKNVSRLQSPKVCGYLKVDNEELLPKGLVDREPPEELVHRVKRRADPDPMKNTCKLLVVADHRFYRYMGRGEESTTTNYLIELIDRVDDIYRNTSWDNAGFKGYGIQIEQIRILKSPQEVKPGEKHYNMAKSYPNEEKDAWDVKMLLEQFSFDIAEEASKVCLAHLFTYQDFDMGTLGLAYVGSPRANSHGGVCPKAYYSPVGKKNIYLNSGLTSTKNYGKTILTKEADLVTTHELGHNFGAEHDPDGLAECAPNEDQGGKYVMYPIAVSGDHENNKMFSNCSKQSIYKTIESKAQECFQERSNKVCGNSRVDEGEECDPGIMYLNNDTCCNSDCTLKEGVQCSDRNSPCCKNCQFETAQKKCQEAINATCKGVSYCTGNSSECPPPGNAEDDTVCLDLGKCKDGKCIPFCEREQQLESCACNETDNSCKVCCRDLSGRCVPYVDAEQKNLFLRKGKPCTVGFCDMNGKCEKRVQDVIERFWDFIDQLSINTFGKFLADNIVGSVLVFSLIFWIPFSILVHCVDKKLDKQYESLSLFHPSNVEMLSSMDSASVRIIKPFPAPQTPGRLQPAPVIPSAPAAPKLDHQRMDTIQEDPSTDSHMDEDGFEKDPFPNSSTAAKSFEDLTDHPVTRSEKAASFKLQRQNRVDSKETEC
Experiment [11] in a line: ADAM10 protease inhibitors, dose response, selectivity assay for ADAM17 exosite inhibitor project, biochemical, FRET peptide substrate, recombinant human ADAM10 (AID 743259).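 Further: ADAM10 enzyme cleaving a FRET peptide substrate.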
A short description of experiment [12]: Late stage assay provider results from the probe development effort to identify selective inhibitors of heat shock protein 90 (HSP90): Absorbance-based cell proliferation assay in SKBR3 cells. As to conditions: SK-BR-3. It counts as functional.
A short description of experiment [13]: Late stage assay provider results from the probe development effort to identify selective inhibitors of heat shock protein 90 (HSP90): Absorbance-based cell proliferation assay in MCF7 cells. It counts as functional.
In a further experiment the test system is HeLa. Description: HeLa cell cytotoxicity, dose response, cytotoxicity control, ATP luminescence, cherry-pick samples (AID 687004). It is filed as functional, cell-based. As to conditions: Homo sapiens.
The next experiment deals with HEK293. The experiment can be described thus: HEK293T cell cytotoxicity, dose response, cytotoxicity control, ATP luminescence, cherry-pick samples (AID 687005).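 Further: cells exposed to compound for 48 hours.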 The conditions noted are these: Homo sapiens. It counts as functional, cell-based.
The nature of experiment [14]: HEK293 Cytotoxicity Assay Measured in Cell-Based System Using Plate Reader - 7071-01_Inhibitor_Dose_CherryPick_Activity_Set2. It counts as functional.
The target in experiment [15] is Metabotropic glutamate receptor 3 (Rattus norvegicus, UniProt P31422). Description: mGlu3 NAM potency via calcium readout, dose response, mGlu3 NAM project, TREx293 cells, Galpha15, calcium flux (AID 651840). It is filed as functional. Background: Calcium assays in cells follow changes in intracellular calcium, usually with a dye or a luminescent sensor.
Sequence of Metabotropic glutamate receptor 3 (P31422 whole entry): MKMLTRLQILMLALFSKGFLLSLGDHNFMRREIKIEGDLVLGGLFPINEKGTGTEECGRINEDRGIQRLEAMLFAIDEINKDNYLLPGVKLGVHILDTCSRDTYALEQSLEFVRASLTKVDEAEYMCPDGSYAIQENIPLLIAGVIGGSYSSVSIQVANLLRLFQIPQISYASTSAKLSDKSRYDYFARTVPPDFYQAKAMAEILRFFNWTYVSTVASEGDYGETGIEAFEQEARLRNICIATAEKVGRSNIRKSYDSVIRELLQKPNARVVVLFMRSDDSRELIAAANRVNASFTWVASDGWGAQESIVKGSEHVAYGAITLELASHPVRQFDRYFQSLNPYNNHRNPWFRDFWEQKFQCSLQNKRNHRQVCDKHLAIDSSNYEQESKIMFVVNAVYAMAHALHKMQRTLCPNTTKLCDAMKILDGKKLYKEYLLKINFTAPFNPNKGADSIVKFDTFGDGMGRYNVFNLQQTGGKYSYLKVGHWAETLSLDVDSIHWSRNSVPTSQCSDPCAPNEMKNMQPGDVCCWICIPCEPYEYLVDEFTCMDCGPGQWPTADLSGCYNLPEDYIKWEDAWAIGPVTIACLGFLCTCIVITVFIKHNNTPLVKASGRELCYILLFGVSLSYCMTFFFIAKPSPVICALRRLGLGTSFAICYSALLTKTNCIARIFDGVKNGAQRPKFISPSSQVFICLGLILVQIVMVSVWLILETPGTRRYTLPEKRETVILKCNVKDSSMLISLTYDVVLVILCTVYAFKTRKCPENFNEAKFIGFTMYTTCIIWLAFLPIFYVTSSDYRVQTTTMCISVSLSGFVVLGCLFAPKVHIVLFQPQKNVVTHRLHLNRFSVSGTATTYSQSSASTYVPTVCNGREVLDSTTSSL
A short description of experiment [16]: Late stage assay provider results from the probe development effort to identify inhibitors of the Plasmodium falciparum M17 Leucine Aminopeptidase (M17LAP): radiolabel-based cell-based dose response assay to identify compounds that inhibit P. falciparum growth in RBCs Set 2. It counts as functional.
In experiment [17] the target is Protein disulfide-isomerase (Homo sapiens, UniProt P07237). Description: PDI inhibitors, insulin turbidity readout, confirmation, biochemical, dry powder samples, set 2 (AID 652146).
Sequence of Protein disulfide-isomerase (P07237 whole entry): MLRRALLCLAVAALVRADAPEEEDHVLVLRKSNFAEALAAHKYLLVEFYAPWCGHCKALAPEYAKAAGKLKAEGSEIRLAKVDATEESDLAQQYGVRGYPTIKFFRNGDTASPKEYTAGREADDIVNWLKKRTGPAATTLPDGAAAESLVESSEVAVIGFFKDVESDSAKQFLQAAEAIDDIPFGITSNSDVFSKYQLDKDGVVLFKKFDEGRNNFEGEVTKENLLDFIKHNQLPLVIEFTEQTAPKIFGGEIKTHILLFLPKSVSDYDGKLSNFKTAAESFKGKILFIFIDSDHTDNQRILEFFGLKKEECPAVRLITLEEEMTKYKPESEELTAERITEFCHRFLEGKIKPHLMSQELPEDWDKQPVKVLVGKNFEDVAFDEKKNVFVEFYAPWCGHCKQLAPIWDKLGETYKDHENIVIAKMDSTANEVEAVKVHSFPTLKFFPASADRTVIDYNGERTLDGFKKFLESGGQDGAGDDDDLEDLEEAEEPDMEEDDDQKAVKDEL
Experiment [18] can be described thus: A375 melanoma cell cytotoxicity, dose response, counter-screen for MITF inhibitor project, CellTiter-Glo luminescence, dry powder, set 2 (AID 624489).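 Further: actives are compounds lowering A375 viability meaning general cytotoxicity.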 The conditions noted are these: A-375. It is filed as functional, cell-based.
A short description of experiment [19]: cytotoxicity in primary human melanocytes, dose response, cytotoxicity control, cell-based, plate reader, dry powder (AID 651920). It is filed as functional.

Calls of active or inactive are those of the source.

In general, AC50 refers to the concentration giving half of the maximal activity seen. Take `COc1ccccc1NS(=O)(=O)c1cc(NC(=O)c2ccc(Cl)nc2)ccc1Cl`: the AC50 in [1] was 11.3 µM (active); in [2], 3.12 µM (active); in experiment [3] it was 56.2 µM (active); in [4], 21 µM (active); in [5], 3.71 µM (active).

For orientation: EC50 means the concentration giving half of the maximal effect. Take `CCOC(=O)c1sc(NC(=O)Nc2cccc(Cl)c2)cc1C`: the values for the concentration for a half-maximal effect (EC50) (in experiment [6]; on Streptokinase A; with Streptococcus) were 4.86 µM (active), 11.2 µM (active) and 4.1 µM (active), respectively. The AC50 in the experiment with INS1 is 4.57 µM (active); in [7], 14.7 µM (active).

One may read the IC50 as the midpoint of a concentration-inhibition curve. Consider `O=c1nc(Nc2ccc(OCc3ccccc3)cc2)sc2ncc(F)cc12`, for which, in experiment [8], the IC50 was 1.42 µM (active).

Usually CC50 stands for the concentration at which the toxic effect on the cells reaches its halfway point. In the case of `O=C(Nc1nc2c(s1)CCCC2)c1cccs1`, the CC50 in experiment [9] is > 50 µM (active).

For the compound `Cc1ccc(CC2(c3ccccc3)NC(=O)NC2=O)cc1` (centres undefined), the IC50 is 18.6 µM (inactive) in experiment [10] and > 69.4 µM (inactive) in [11].

`COc1ccccc1/N=N/c1c(O)[nH]c(=O)c(C#N)c1C`: the IC50 in experiment [12] and in experiment [13] was > 100 µM (inactive) each time.

As to `CCCC#Cc1ccc2c(c1)O[C@H](CN(C)CCC)[C@H](C)CN([C@@H](C)CO)S2(=O)=O`, the AC50 in the experiment on HeLa is 42.6 µM (active); in the experiment on HEK293 it was 14.6 µM (active); in [14], 14.6 µM (active).

For the compound `COc1ccc(C#Cc2ccc(C(=O)N3CCC[C@@H](O)C3)cc2)cc1`, in experiment [15], the half-maximal inhibitory concentration (IC50) stood at 0.597 µM.

`O=C(Cc1ccc2ccccc2c1)NO`: in [16], the 50% inhibitory concentration (IC50) is 5.8 µM (active).

As for `C=CCOc1ccc(CN2CCC(CCOc3ccccc3)(C(=O)N3CCCC3)CC2)cc1Cl`, the AC50 in [17] was > 30 µM (inactive).

As for `O=C(NC1=C(N2CCN(c3ccccc3)CC2)C(=O)c2ccccc2C1=O)c1ccccc1`, the AC50 in [18] and in experiment [19] was > 70 µM (inactive) each time.

The values above are taken from ChEMBL document CHEMBL1201862, “PubChem BioAssay data set” (2004).
